# According to patent publication US7807662B2, “Platinum IV complex inhibitor” (University of South Florida, priority 2004, dated 2010):
# How the values were obtained:
# Stat1 = target: T1, Stat1 (Homo sapiens, UniProt P42224); assay: In vitro DNA-binding activity assay with EMSA, Stat1; type: biochemical; details: hSIE probe, pre-incubation with compound
# T1 construct: nuclear extracts of equal total protein containing active Stat1, Stat3 and Stat5 were pre-incubated with different concentrations of IS3 295; endogenous in cells; host or cells: nuclear extracts
# T1 sequence (P42224 2-750 limits assumed): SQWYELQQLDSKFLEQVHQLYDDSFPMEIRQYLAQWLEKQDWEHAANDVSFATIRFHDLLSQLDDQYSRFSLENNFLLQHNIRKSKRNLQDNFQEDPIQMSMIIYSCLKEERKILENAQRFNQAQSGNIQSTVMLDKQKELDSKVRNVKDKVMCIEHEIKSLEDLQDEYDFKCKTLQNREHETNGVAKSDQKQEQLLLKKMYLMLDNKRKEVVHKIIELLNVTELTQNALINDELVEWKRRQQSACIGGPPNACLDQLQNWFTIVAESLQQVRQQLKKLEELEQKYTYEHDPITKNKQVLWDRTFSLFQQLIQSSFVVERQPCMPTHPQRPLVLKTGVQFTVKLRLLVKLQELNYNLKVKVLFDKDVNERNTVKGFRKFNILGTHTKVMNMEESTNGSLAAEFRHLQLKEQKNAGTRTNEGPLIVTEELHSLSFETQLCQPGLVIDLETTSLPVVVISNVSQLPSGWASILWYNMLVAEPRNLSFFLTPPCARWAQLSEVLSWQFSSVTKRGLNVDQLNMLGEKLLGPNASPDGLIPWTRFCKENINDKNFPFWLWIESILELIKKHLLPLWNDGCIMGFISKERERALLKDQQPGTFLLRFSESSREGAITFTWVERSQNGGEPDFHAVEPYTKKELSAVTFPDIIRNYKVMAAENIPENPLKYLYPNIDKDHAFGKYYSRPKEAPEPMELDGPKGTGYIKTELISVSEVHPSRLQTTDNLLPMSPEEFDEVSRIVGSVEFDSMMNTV
# Experimental: (§1) Nuclear extract preparation and gel shift assays—Nuclear extract preparation from v-Src-transformed fibroblasts (NIH3T3/v-Src) or tumor cell lines and electrophoretic mobility shift assay were carried out as previously described (11, 13, 37). The ^32P-labeled oligonucleotide probes used were hSIE (high affinity sis-inducible element, m67 variant, 5′-[…]) (SEQ ID NO:1) that bound Stat1 and Stat3 (13, 45) and MGFe (mammary gland factor element from the bovine β-casein gene promoter, 5′-AGATTTCTAGGAATTCAA) (SEQ ID NO:2) for Stat1 and Stat5 binding (46, 47). Except where indicated, inhibitor compound was pre-incubated with the nuclear extract for 30 minutes at room temperature prior to incubation with radiolabeled probe.
# (§2) Compounds from the NCI diversity set were evaluated for inhibition of Stat3 signaling in in vitro DNA-binding activity assay with analysis of electrophoretic mobility shift assay (EMSA). A platinum (IV) complex, IS3 295 (NSC 295558) (FIG. 1E), was identified as potent inhibitor of Stat3, which was further characterized in a number of assays for its anti-Stat3 property. […]
# Stat5 = assay: In vitro DNA-binding activity assay with EMSA, Stat5; type: biochemical; details: MGFe probe
# Experimental: as §1, §2
# Stat3 [1] = target: T2, Stat3 (Homo sapiens, UniProt P40763); details: from reference 35; cited from earlier work
# T2 construct: nuclear extracts of equal total protein containing active Stat1, Stat3 and Stat5 were pre-incubated with different concentrations of IS3 295; endogenous in cells; host or cells: nuclear extracts
# E2F1 = E2F1 (Homo sapiens, UniProt Q01094); assay: In vitro DNA-binding activity assay with EMSA, E2F1 (control); type: biochemical; details: DHFR promoter sequence probe
# Excerpt: In control studies, the effect of IS3 295 was investigated on the DNA-binding activity of E2F1 that was unrelated to Stat proteins.
# Stat3 [2] = target: T2, Stat3; assay: In vitro DNA-binding activity assay with EMSA, Stat3; type: biochemical; details: hSIE probe, pre-incubation with compound
# Experimental: as §1, §2
# T2 sequence (P40763 2-770 limits assumed, species assumed): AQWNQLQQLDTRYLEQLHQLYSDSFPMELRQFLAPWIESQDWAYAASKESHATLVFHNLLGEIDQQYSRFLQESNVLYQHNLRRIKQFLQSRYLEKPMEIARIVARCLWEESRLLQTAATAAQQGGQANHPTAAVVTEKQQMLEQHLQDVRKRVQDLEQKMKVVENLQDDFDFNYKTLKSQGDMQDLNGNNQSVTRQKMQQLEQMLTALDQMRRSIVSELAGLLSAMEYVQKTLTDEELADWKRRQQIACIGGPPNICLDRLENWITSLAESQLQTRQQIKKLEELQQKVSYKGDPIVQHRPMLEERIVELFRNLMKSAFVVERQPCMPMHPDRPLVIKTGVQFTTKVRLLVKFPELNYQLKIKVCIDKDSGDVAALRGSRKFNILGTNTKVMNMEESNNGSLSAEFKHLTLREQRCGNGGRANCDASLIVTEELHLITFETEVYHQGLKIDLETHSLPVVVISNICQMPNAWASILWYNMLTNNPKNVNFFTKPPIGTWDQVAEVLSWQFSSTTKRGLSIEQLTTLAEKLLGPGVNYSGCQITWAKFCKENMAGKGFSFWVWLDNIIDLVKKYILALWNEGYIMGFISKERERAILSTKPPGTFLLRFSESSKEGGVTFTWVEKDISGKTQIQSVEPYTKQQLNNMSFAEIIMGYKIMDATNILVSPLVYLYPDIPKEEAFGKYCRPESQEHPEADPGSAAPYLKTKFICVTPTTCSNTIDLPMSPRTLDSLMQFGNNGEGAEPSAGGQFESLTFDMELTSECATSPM
# Sequence of E2F1 (Q01094 whole entry, species assumed): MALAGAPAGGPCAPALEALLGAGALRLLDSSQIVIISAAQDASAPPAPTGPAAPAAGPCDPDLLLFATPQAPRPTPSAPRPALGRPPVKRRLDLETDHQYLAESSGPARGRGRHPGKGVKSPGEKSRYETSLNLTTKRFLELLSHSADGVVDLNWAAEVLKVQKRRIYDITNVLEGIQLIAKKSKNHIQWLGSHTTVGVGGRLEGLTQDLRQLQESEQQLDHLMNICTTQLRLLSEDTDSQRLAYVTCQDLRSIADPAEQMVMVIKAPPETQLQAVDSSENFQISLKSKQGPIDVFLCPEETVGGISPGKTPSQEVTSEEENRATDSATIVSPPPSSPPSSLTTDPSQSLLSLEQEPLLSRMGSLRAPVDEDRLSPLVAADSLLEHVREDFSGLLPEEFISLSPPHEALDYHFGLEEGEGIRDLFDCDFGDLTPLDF
compound,measurement,setting,value
"N.N.[Cl][Pt][Cl] [cisplatin, reference compound]",level of DNA-binding activity of Stat1,Stat1,no detectable effect
same,level of DNA-binding activity of Stat5:Stat5 dimers,Stat5,no detectable effect
same,effect on Stat3 activity,Stat3 [1],no effect
same,E2F1 DNA-binding activity,E2F1,no detectable effect
same,level of DNA-binding activity of Stat3,Stat3 [2],no detectable effect
